Laboratory results taken from patent US20050186659A1, “Methods for protein purification” (priority 2004, published 2005).
Values joined by “and” are separate entries in the source; they are usually repeats but may differ in a detail not shown here. Equal entries are not always repeated.

Key:
[1] = molecular target: T1, 11β-HSD1 (Homo sapiens, UniProt P28845); test: Ki values for 11β-HSD1 (stated, no method given); format: biochemical; conditions: range in words only
Target sequence in this assay (P28845 24-292): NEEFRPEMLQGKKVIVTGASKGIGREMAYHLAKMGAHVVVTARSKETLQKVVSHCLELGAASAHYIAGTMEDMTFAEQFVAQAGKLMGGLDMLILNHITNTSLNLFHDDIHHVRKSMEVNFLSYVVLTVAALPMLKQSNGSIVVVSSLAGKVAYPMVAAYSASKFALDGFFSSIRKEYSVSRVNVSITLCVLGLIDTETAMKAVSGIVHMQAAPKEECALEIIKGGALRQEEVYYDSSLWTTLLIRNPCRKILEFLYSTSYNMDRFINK

[2] = molecular target: T2, guinea pig 11β-HSD1 (Cavia porcellus, UniProt Q6QLL4); test: GuHCl-induced inactivation (conformational stability) monitored by cortisol dehydrogenation activity; format: biochemical; conditions: guinea pig enzyme, control (no addition) 0.51
T2 construct: the first 23 amino acid residues (19 for the rat variant) of the protein, which includes the distal N-terminus and the transmembrane domain, were omitted; His6 (N); made in house; host or cells: E. coli BL21(DE3), pET28a derivative, fermentor culture
Experimental: (§1) Stability measurements. The conformational stability was examined by monitoring GuHCl-induced solvent inactivation of 11β-HSD1. Protein solutions (5-10 μM) were incubated overnight at room temperature in various concentrations of GuHCl (0-2 M) buffered with 50 mM Tris-HCl, pH 8.0. The inactivation of the enzyme was monitored by the decrease in dehydrogenase activity (25 μM cortisol, 50 μM NADP^+) using the fluorimetric assay described above. The stability data were analyzed by nonlinear regression, fitting to the equation described by Santoro and Bolen (24) using the program GraFit, version 5.0 (Erithacus Software, Staines, UK). The midpoint concentration of inactivation, Cm, was determined from the ratio, ΔG^H2O/m, of the fitted parameters.

[3] = molecular target: T1, 11β-HSD1; test: Active site titration, cortisol dehydrogenation by 11β-HSD1 with increasing inhibitor; format: biochemical; set-up: the first 23 amino acid residues (19 for the rat variant) of the protein, which includes the distal N-terminus and the transmembrane domain, were omitted; made in house; host or cells: E. coli BL21(DE3), pET28a derivative, co-expression of GroEL/ES; conditions: dehydrogenase reaction, 50 μM cortisol, 100 μM NADP+; fitted to Morrison equation; read-out: Ki^app
Experimental: FIG. 3 is a graph depicting active site titration of highly purified, homogenous human 11β-HSD1. Fractional velocities (vi/v0) of cortisol dehydrogenation by 11β-HSD1 were determined in presence of increasing amounts of the selective and potent inhibitor BVT.24829. […] Total protein concentration was determined by amino acid analysis (triplicate measurements) assuming a molecular mass of 31.9 kDa for the His-tagged enzyme.
Enzyme activity measurements. The dehydrogenase activity of 11β-HSD1 was assayed at 25° C. in 50 mM Tris/Cl, pH 7.4, using 50 μM cortisol and 100 μM NADP^+, with a K2 spectrofluorimeter (ISS, Champaign, Ill.). The excitation and emission wavelengths were 340 nm and 460 nm, respectively. To ensure unambiguous initial rate measurements, the enzyme addition was adjusted to give a linear fluorescence increase for at least the first 2 min of reaction. Reaction rates were calculated before and after the addition of purified 11β-HSD1 to give enzymatic rates of NADP^+ reduction. The relationship between the increase of fluorescence and the rate of NADP^+ reduction was established by generating a calibration curve using freshly prepared solutions of NADPH (0-25 μM). […] Substrate and product were monitored by UV absorbance at 240 nm and concentrations were calculated by referral to corresponding calibration curves. […]
Target sequence in this assay (P28845 with tags, fused parts or gaps): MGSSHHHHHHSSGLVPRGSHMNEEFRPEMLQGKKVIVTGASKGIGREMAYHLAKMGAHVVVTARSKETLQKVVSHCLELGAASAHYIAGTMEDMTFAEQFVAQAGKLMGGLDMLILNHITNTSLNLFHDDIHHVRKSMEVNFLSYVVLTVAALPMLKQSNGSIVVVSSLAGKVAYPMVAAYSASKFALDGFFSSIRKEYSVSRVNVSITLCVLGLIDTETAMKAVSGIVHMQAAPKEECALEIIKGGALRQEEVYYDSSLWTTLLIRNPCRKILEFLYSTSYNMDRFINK

[4] = molecular target: T1, 11β-HSD1; test: GuHCl-induced inactivation (conformational stability) monitored by cortisol dehydrogenation activity; format: biochemical; set-up: the first 23 amino acid residues (19 for the rat variant) of the protein, which includes the distal N-terminus and the transmembrane domain, were omitted; made in house; host or cells: E. coli BL21(DE3), pET28a derivative, co-expression of GroEL/ES; conditions: human enzyme, control (no addition) 0.25
Experimental: FIG. 4 is a graph depicting inactivation of recombinant human 11β-HSD1-catalyzed cortisol dehydrogenation with GuHCl. Protein concentration was approximately 5 μM in 50 mM Tris-HCl, pH 8.0. Solutions were exposed to denaturant, and protected by additives as indicated, for 16-18 h at 4° C. (∘) no additives; (□) 50 μM NADP^+; (□) BVT.24829 inhibitor and 50 μM NADP^+.
as §1
Target sequence in this assay (P28845 with tags, fused parts or gaps): as above

[5] = molecular target: T1, 11β-HSD1; test: Yield of soluble recombinant 11β-HSD1 expressed in E. coli BL21(DE3), SDS-PAGE of cleared lysate; set-up: the first 23 amino acid residues (19 for the rat variant) of the protein, which includes the distal N-terminus and the transmembrane domain, were omitted; made in house; host or cells: E. coli BL21(DE3), pET28a derivative, co-expression of GroEL/ES; conditions: GroEL/ES co-overexpression in combination with inhibitor in growth medium; estimated by SDS-PAGE
Description: FIGS. 1A and 1B depict expression of soluble 11β-HSD1 as analyzed by SDS-PAGE. Cleared lysates from induced cultures of BL21(DE3) containing pET28a derivatives for expression of human (FIG. 1A) and rat (FIG. 1B) 11β-HSD1. Lane 1, SeeBlue Plus2 pre-stained protein standard. lane 2, overexpression of 11β-HSD1; lane 3, co-overexpression of 11β-HSD1 and GroEL/ES; lane 4, overexpression of 11β-HSD1 in presence of the inhibitor BVT.24829; lane 5, co-overexpression of 11β-HSD1 and GroEL/ES in presence of BVT.24829.
Two different strategies were employed to optimize production of soluble 11β-HSD1. For expression of the human and rat variant, the cells were grown in shake flasks using Terrific Broth medium supplemented with 50 μg/ml kanamycin and 34 μg/ml chloramphenicol. To increase the yield of soluble human and rat 11β-HSD1, the BL21(DE3) cells were co-transformed with the plasmid pBV530, harboring the genes for the E. coli chaperonin GroEL/ES under control of the araBAD promoter. The cells were then grown at 25° C. to a cell density corresponding to an A600 value of 0.5-1.0. To induce expression of GroEL/ES, arabinose was added to a final concentration of 0.05%. 45-60 minutes after induction of the chaperonin, 0.2 mM isopropyl-β-D-thiogalactoside (IPTG) was added to initiate production of 11β-HSD1. […]
Target sequence in this assay (P28845 with tags, fused parts or gaps): as above

T2 sequence (Q6QLL4 with tags, fused parts or gaps): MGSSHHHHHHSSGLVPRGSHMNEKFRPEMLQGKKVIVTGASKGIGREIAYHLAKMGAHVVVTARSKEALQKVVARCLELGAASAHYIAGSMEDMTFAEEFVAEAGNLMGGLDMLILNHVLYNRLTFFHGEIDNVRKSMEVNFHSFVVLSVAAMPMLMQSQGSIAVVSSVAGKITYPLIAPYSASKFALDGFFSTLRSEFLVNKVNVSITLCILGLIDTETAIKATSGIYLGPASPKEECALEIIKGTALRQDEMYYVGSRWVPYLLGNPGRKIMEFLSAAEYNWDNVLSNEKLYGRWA

SMILES | Ki values for 11β-HSD1 [1] | midpoint concentration, Cm, for GuHCl-induced inactivation ([2]; 25 μM inhibitor + cofactor 50 μM NADP+) | midpoint concentration, Cm, for GuHCl-induced inactivation ([2]; 25 μM inhibitor added) [M] | Ki [3] [nM] | midpoint concentration, Cm, for GuHCl-induced inactivation ([4]; inhibitor + cofactor 50 μM NADP+) | midpoint concentration, Cm, for GuHCl-induced inactivation ([4]; one equivalent of inhibitor added) [M] | improvement of yield of soluble human 11β-HSD1 [5]
Cc1c(Cl)cccc1S(=O)(=O)Nc1nc(CC(=O)N2CCN(C)CC2)cs1 [BVT.2733, 3-Chloro-2-methyl-N-{4-[2-(4-methyl-1-piperazinyl)-2-oxoethyl]-1,3-thiazol-2-yl}benzenesulfonamide] | micromolar range | – | – | – | – | – | –
Cc1c(Cl)cccc1S(=O)(=O)Nc1nc(CCN2CCOCC2=O)cs1 [BVT.3498, 3-chloro-2-methyl-N-{4-[2-(3-oxo-4-morpholinyl)ethyl]-1,3-thiazol-2-yl}benzenesulfonamide] | nanomolar range | – | – | – | – | – | –
CCCc1ccc(S(=O)(=O)Nc2ccsc2C(=O)N(CC)CC)cc1 [BVT.4584, N,N-diethyl-(3-{[(4-propylphenyl)sulfonyl]amino}thien-2-yl)carboxamide] | micromolar range | 1.0 M and 0.98 M | 0.75 | – | – | – | –
Cc1sc(NS(=O)(=O)c2cccc(Cl)c2C)nc1CCN1CCOCC1=O [BVT.24829, 3-chloro-2-methyl-N-{5-methyl-4-[2-(3-oxo-4-morpholinyl)ethyl]-1,3-thiazol-2-yl}benzenesulfonamide] | nanomolar range | – | – | 32 ± 1 | 0.7 M and 0.71 M | 0.51 | approximately 60 fold
